Results reported in PubChem BioAssay (NCI).
Values joined by “and” are separate entries in the source; they are usually repeats but may differ in a detail not shown here. Equal entries are not always repeated.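 Protocol summary: plate cells (96-well), add compound at 5 concentrations, incubate 48 h, interpolate endpoints linearly. GI50 marks 50% less growth. TGI denotes the concentration required for complete inhibition of growth.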

Legend:
Test in all cases: NCI-60 cell line screen, 48 h
ACHN renal = test system: ACHN renal
KM12 colon = test system: KM12 colon
SK-MEL-28 melanoma = test system: SK-MEL-28 melanoma
EKVX NSCLC = test system: EKVX NSCLC
SN12C renal = test system: SN12C renal
MOLT-4 leukemia = test system: MOLT-4 leukemia
SK-MEL-2 melanoma = test system: SK-MEL-2 melanoma
CCRF-CEM leukemia = test system: CCRF-CEM leukemia
SNB-19 CNS = test system: SNB-19 CNS
BT-549 breast = test system: BT-549 breast

COC1CC(OC)C(O)C(CO)O1 (centres undefined)
TGI (ACHN renal): > 100 µM | TGI (KM12 colon): > 100 µM | TGI (SK-MEL-28 melanoma): > 100 µM | TGI (EKVX NSCLC): > 100 µM | TGI (SN12C renal): > 100 µM | TGI (MOLT-4 leukemia): > 100 µM | TGI (SK-MEL-2 melanoma): > 100 µM | TGI (CCRF-CEM leukemia): > 100 µM

C#Cc1cc(CN(CC(=O)OC(C)(C)C)CC(=O)OC(C)(C)C)nc(CN(CC(=O)OC(C)(C)C)CC(=O)OC(C)(C)C)c1
TGI (ACHN renal): 77 µM | TGI (KM12 colon): 23 µM | TGI (SK-MEL-28 melanoma): 93.8 µM | TGI (EKVX NSCLC): 49.3 µM | TGI (SNB-19 CNS): 15.1 µM | TGI (SN12C renal): > 100 µM | TGI (MOLT-4 leukemia): 6.33 µM | TGI (SK-MEL-2 melanoma): 8.24 µM | TGI (CCRF-CEM leukemia): 7.93 µM

COC(=O)[C@@]12C=CC(=O)[C@H]3C[C@@H](C(C(C)C)C1)[C@]32OC (some centres undefined)
TGI (ACHN renal): > 100 µM | TGI (KM12 colon): > 100 µM | TGI (SK-MEL-28 melanoma): > 100 µM | TGI (EKVX NSCLC): > 100 µM | TGI (SNB-19 CNS): > 100 µM | TGI (SN12C renal): > 100 µM | TGI (MOLT-4 leukemia): > 100 µM | TGI (SK-MEL-2 melanoma): > 100 µM | TGI (CCRF-CEM leukemia): > 100 µM

COC(C)(C)[C@H](O)C(O)CC(C)[C@@H]1CCC23CC12CCC1[C@@]2(C)CCC(OC(C)=O)C(C)(C)C2CC(OC2OC(COC(C)=O)C(O)C(O)C2O)[C@]13C (some centres undefined)
GI50 (ACHN renal): 6.08 µM | TGI (ACHN renal): 11.4 µM and 20 µM | GI50 (KM12 colon): 4.23 µM | TGI (KM12 colon): 7.55 µM and 14.1 µM | GI50 (SK-MEL-28 melanoma): 5.41 µM | TGI (SK-MEL-28 melanoma): 12.2 µM and 18.9 µM | GI50 (EKVX NSCLC): 10.9 µM | TGI (EKVX NSCLC): 15.4 µM and 24.7 µM | TGI (SNB-19 CNS): 14.5 µM and 20 µM | GI50 (SN12C renal): 6.29 µM | TGI (SN12C renal): 10.6 µM and 19.4 µM | GI50 (MOLT-4 leukemia): 0.00625 µM | TGI (MOLT-4 leukemia): 26.7 µM and 15.8 µM | GI50 (SK-MEL-2 melanoma): 4.34 µM | TGI (SK-MEL-2 melanoma): 17.6 µM and 14.8 µM | GI50 (CCRF-CEM leukemia): 4.08 µM | TGI (CCRF-CEM leukemia): 9.67 µM and 17.3 µM

Cc1c(-c2nnc(-c3cc(Cl)c(Cl)cc3Cl)o2)nnn1-c1ccnc2c(C(F)(F)F)cccc12
GI50 (ACHN renal): 21.9 µM | TGI (ACHN renal): 51.6 µM | GI50 (KM12 colon): 24.6 µM | TGI (KM12 colon): 67.4 µM | GI50 (SK-MEL-28 melanoma): 26.5 µM | TGI (SK-MEL-28 melanoma): 75.3 µM | GI50 (EKVX NSCLC): 23.7 µM | TGI (EKVX NSCLC): 73.9 µM | GI50 (SNB-19 CNS): 23.8 µM | TGI (SNB-19 CNS): 79.9 µM | GI50 (SN12C renal): 31.4 µM | TGI (SN12C renal): > 100 µM | GI50 (MOLT-4 leukemia): 36.9 µM | TGI (MOLT-4 leukemia): > 100 µM | GI50 (SK-MEL-2 melanoma): 19.9 µM | TGI (SK-MEL-2 melanoma): 52 µM

CC(CN)[C@@H]1CC[C@]2(CO)CC[C@]3(C)[C@H](CC[C@@H]4[C@@]5(C)CCC(N)C(C)(C)[C@@H]5CC[C@]43C)[C@@H]12 (some centres undefined)
GI50 (ACHN renal): 1.77 µM | TGI (ACHN renal): 3.22 µM | GI50 (KM12 colon): 1.74 µM | TGI (KM12 colon): 3.34 µM | GI50 (SK-MEL-28 melanoma): 1.91 µM | TGI (SK-MEL-28 melanoma): 3.62 µM | GI50 (EKVX NSCLC): 1.73 µM | TGI (EKVX NSCLC): 3.51 µM | GI50 (SNB-19 CNS): 1.79 µM | TGI (SNB-19 CNS): 3.29 µM | GI50 (SN12C renal): 1.91 µM | TGI (SN12C renal): 3.67 µM | GI50 (SK-MEL-2 melanoma): 1.93 µM | TGI (SK-MEL-2 melanoma): 3.6 µM

CCOC(=O)c1cc(OC(=O)CC)c2c(OC)ccc(OC)c2c1
TGI (ACHN renal): > 100 µM | TGI (KM12 colon): > 100 µM | TGI (SK-MEL-28 melanoma): > 100 µM | TGI (EKVX NSCLC): > 100 µM | TGI (SNB-19 CNS): > 100 µM | TGI (SN12C renal): > 100 µM | TGI (MOLT-4 leukemia): > 100 µM | TGI (SK-MEL-2 melanoma): > 100 µM

CSC1(CC(=O)N2CCCCC2)C(=O)Nc2ccccc21 (centres undefined)
TGI (ACHN renal): > 100 µM | TGI (KM12 colon): > 100 µM | TGI (SK-MEL-28 melanoma): > 100 µM | TGI (EKVX NSCLC): > 100 µM | TGI (SNB-19 CNS): > 100 µM | TGI (BT-549 breast): > 100 µM | TGI (MOLT-4 leukemia): > 100 µM | TGI (SK-MEL-2 melanoma): > 100 µM

CC(C)c1ccc2nc3ccc(C(=O)NCCN4CCN(c5ccccc5)CC4)cn3c(=O)c2c1
TGI (KM12 colon): > 100 µM | TGI (SK-MEL-28 melanoma): > 100 µM | TGI (EKVX NSCLC): > 100 µM | TGI (SNB-19 CNS): > 100 µM | TGI (BT-549 breast): > 100 µM | TGI (CCRF-CEM leukemia): > 100 µM

FC(F)(F)c1nc(-c2ccccc2)oc1Sc1oc(-c2ccccc2)nc1C(F)(F)F
TGI (ACHN renal): > 100 µM | TGI (KM12 colon): > 100 µM | TGI (EKVX NSCLC): > 100 µM | TGI (SNB-19 CNS): > 100 µM | TGI (SN12C renal): > 100 µM | TGI (MOLT-4 leukemia): > 100 µM | TGI (SK-MEL-2 melanoma): > 100 µM | TGI (CCRF-CEM leukemia): > 100 µM

Cc1ccc(NC(=O)CC2C(=O)Nc3ccccc3S2=O)c(C)c1 (centres undefined)
TGI (ACHN renal): 72.9 µM | TGI (KM12 colon): > 100 µM | TGI (SK-MEL-28 melanoma): > 100 µM | TGI (EKVX NSCLC): > 100 µM | TGI (SNB-19 CNS): 30.8 µM | TGI (SN12C renal): 96.7 µM | TGI (MOLT-4 leukemia): > 52.5 µM | TGI (SK-MEL-2 melanoma): 35.9 µM | TGI (CCRF-CEM leukemia): 67 µM

COc1ccc(C2C3=C(COC3=O)Oc3cc4c(cc32)OCO4)cc1 (centres undefined)
TGI (ACHN renal): > 100 µM | TGI (SK-MEL-28 melanoma): > 100 µM | TGI (EKVX NSCLC): > 100 µM | TGI (SNB-19 CNS): > 100 µM | TGI (SN12C renal): > 100 µM | TGI (MOLT-4 leukemia): 81.1 µM | TGI (SK-MEL-2 melanoma): > 100 µM | TGI (CCRF-CEM leukemia): > 100 µM

Cn1nc2ccccc2cc1=O
TGI (ACHN renal): > 100 µM | TGI (KM12 colon): > 100 µM | TGI (SK-MEL-28 melanoma): > 100 µM | TGI (EKVX NSCLC): > 100 µM | TGI (SNB-19 CNS): > 100 µM | TGI (SN12C renal): > 100 µM | TGI (SK-MEL-2 melanoma): > 100 µM | TGI (CCRF-CEM leukemia): > 100 µM

C/C=C/C1=CN2C(=O)c3cc(OC4OC(C)C(NC)C(C)(O)C4O)c(C)c(O)c3N=C[C@@H]2C1 (some centres undefined)
GI50 (ACHN renal): 0.071 µM and < 0.01 µM | TGI (SN12C renal): 1.21 µM | GI50 (MOLT-4 leukemia): 0.0413 µM and < 0.01 µM | GI50 (CCRF-CEM leukemia): 0.0639 µM and < 0.01 µM | TGI (CCRF-CEM leukemia): 41.5 µM

CCCCCCCCCCCCC(CCCCCCCCCCCC)OP(=O)(O)O
TGI (ACHN renal): > 100 µM | TGI (KM12 colon): > 100 µM | TGI (SK-MEL-28 melanoma): > 100 µM | TGI (EKVX NSCLC): > 100 µM | TGI (SNB-19 CNS): > 100 µM | TGI (SN12C renal): > 100 µM | TGI (MOLT-4 leukemia): > 100 µM | TGI (SK-MEL-2 melanoma): > 100 µM | TGI (CCRF-CEM leukemia): > 100 µM

COC(=O)C1=C(C)N(NC(N)=O)C(C)(O)C12CCOC2=O (centres undefined)
TGI (ACHN renal): > 100 µM | TGI (KM12 colon): > 100 µM | TGI (SK-MEL-28 melanoma): > 100 µM | TGI (EKVX NSCLC): > 100 µM | TGI (SNB-19 CNS): > 100 µM | TGI (SN12C renal): > 100 µM | TGI (MOLT-4 leukemia): > 100 µM | TGI (SK-MEL-2 melanoma): > 100 µM | TGI (CCRF-CEM leukemia): > 100 µM

C=C[C@H]1C=Cc2c(OC)cccc2[C@@H]1COP1(=S)NC(C)C(c2ccccc2)O1 (some centres undefined)
TGI (KM12 colon): > 100 µM | TGI (SK-MEL-28 melanoma): > 100 µM | TGI (EKVX NSCLC): > 100 µM | TGI (SNB-19 CNS): > 100 µM | TGI (SN12C renal): > 100 µM | TGI (MOLT-4 leukemia): > 100 µM | TGI (CCRF-CEM leukemia): > 100 µM

O=C(C=Nc1ccccc1C(=O)[O-])c1cccs1.O=C(C=Nc1ccccc1C(=O)[O-])c1cccs1.[Zn+2]
TGI (ACHN renal): > 100 µM | TGI (KM12 colon): > 100 µM | TGI (SK-MEL-28 melanoma): > 100 µM | TGI (SNB-19 CNS): > 100 µM | TGI (SN12C renal): > 10 µM | TGI (MOLT-4 leukemia): > 100 µM | TGI (SK-MEL-2 melanoma): 52.1 µM | TGI (CCRF-CEM leukemia): 65.3 µM

c1ccc2c(c1)[nH]c1c2ncc2[nH]c3ccccc3c21
TGI (ACHN renal): 16.3 µM | TGI (KM12 colon): 10.3 µM | TGI (SK-MEL-28 melanoma): 27.7 µM | TGI (EKVX NSCLC): 33.1 µM | TGI (SNB-19 CNS): 10.7 µM | TGI (SN12C renal): 13.6 µM | TGI (MOLT-4 leukemia): 8.96 µM | TGI (SK-MEL-2 melanoma): 33.7 µM | TGI (CCRF-CEM leukemia): 9.45 µM

COC1=C(OC)[C@]2(OC)c3c(O)c(OC)c4c(c3O[C@@]23O[C@@H](c2ccccc2)CC=C3C1=O)[C@@H](O)C[C@H](c1ccccc1)O4
GI50 (ACHN renal): 0.819 µM | TGI (ACHN renal): 2.06 µM | GI50 (SK-MEL-28 melanoma): 0.318 µM | TGI (SK-MEL-28 melanoma): 1 µM | GI50 (EKVX NSCLC): 1.69 µM | TGI (EKVX NSCLC): 3.08 µM | GI50 (SNB-19 CNS): 2.11 µM | TGI (SNB-19 CNS): 9.69 µM | GI50 (BT-549 breast): 0.394 µM | TGI (BT-549 breast): 1.21 µM | GI50 (SN12C renal): 0.27 µM | TGI (SN12C renal): 0.893 µM | GI50 (MOLT-4 leukemia): 0.0852 µM | TGI (MOLT-4 leukemia): 0.354 µM | GI50 (CCRF-CEM leukemia): 0.0545 µM | TGI (CCRF-CEM leukemia): 0.208 µM

CC(C)c1cccc(C(C)C)c1NC(=O)CCC(=O)NN
TGI (ACHN renal): > 100 µM | TGI (KM12 colon): > 100 µM | TGI (SK-MEL-28 melanoma): > 100 µM | TGI (EKVX NSCLC): > 100 µM | TGI (SNB-19 CNS): > 100 µM | TGI (SN12C renal): > 100 µM | TGI (MOLT-4 leukemia): > 100 µM | TGI (CCRF-CEM leukemia): > 100 µM
